Assay results as given in patent publication EP1674457B1, “Derivatives of squaric acid with anti-proliferative activity” (GPC Biotech AG, priority 2004, dated 2006).
Where two headings read alike, the source gives them in different places.

Tests used:
MCF7 [1] = assay: SRB assay, inhibition of tumor cell growth at 1 µM (Example 61); format: cell-based; details: 48 hours; for inhibition at 1 µM: Homo sapiens
Experimental: (§1) 3,000-15,000 cells/well were exposed to the test compounds at a concentration of 1 µM for 48 hours, and cytotoxicty was measured using the SRB assay according to Shekan et al (J Natl Cancer Inst (1990) 82, 1107-112). Briefly, cells were plated in 96 well dishes 24 hours prior to compound addition. The assay was terminated with the addition of cold TCA to a final concentration of 10% and the plates were incubated for one hour at 4°C. The plates were then washed 5 times with water and 100µl of a Sulforhodamine B solution (4%) was added to each well. The plate was then incubated for 10 minutes at room temperature before removal of unbound dye by washing with 1% acetic acid. The bound dye was solubilized with 10 mM Trizma base and the absorbance read at OD570. Inhibitory activity of the compounds was calculated as % inhibition compared to cells treated with the solvent (DMSO). Table 2 represents the growth inhibitory activity of certain compunds of the invention across a number of tumor cell lines.

PC-3 [2] = assay: as above; format: cell-based; details: 48 hours; for inhibition at 1 µM: Homo sapiens
Experimental: as §1

HCT-116 [3] = assay: as above; format: cell-based; details: 48 hours; for inhibition at 1 µM: Homo sapiens
Experimental: as §1

SW-620 [4] = assay: as above; format: cell-based; details: 48 hours; for inhibition at 1 µM: Homo sapiens
Experimental: as §1

A-549 = assay: as above; format: cell-based; details: for inhibition at 1 µM: Homo sapiens, A549, 48 hours; for % Inhibition (1 µM): 48 hours
Experimental: as §1

A2780 [5] = assay: as above; format: cell-based, Human; details: 48 hours; for inhibition at 1 µM: Homo sapiens
Experimental: as §1

HCT-116 [6] = assay: IC50 determination by SRB assay (Example 62); format: cell-based; details: HCY-116
Experimental: as §1
(§2) The assay was performed similar to example 61. However, test compounds were added at various concentrations, such as from 0.001 to about 0.1 µM, from 0.1 to about 10 µM, or from 1 to about 10 µM, as the need may be, in order to estimate the IC50 values. IC50 values were determined by plotting the percentage inhibitory activity for each concentration, fitting a curve using appropriate software and estimating the concentration at which 50% inhibition of growth would occur.

SW-620 [7] = assay: IC50 determination by SRB assay (Example 62); format: cell-based
Experimental: as §1, §2

MCF7 [8] = assay: IC50 determination by SRB assay (Example 62); format: cell-based
Experimental: as §1, §2

A2780 [9] = assay: IC50 determination by SRB assay (Example 62); format: cell-based; details: Homo sapiens
Experimental: as §1, §2

PC-3 [10] = assay: IC50 determination by SRB assay (Example 62); format: cell-based; details: Homo sapiens
Experimental: as §1, §2

Row | Compound | IC50 (HCT-116 [6]; Homo sapiens, HCT-116) | IC50 (SW-620 [7]; Homo sapiens) | IC50 (MCF7 [8]; Homo sapiens) | IC50 (A2780 [9]) | IC50 (PC-3 [10]) | IC50 (MCF7 [8]) | IC50 (HCT-116 [6]) | IC50 (SW-620 [7]) | inhibition at 1 µM (MCF7 [1]) | inhibition at 1 µM (PC-3 [2]) | inhibition at 1 µM (HCT-116 [3]) | inhibition at 1 µM (SW-620 [4]) | inhibition at 1 µM (A-549) | inhibition at 1 µM (A2780 [5]) | % Inhibition (1 µM) (PC-3 [2]) | % Inhibition (1 µM) (HCT-116 [3]) | % Inhibition (1 µM) (SW-620 [4]) | % Inhibition (1 µM) (A-549) | % Inhibition (1 µM) (A2780 [5]) | % Inhibition (1 µM) (MCF7 [1])
1 | O=c1c(NCCCCCCCCOc2ccc(Cl)cc2)c(Nc2ccncc2)c1=O [SQ-9] |  | < 2000 nM | < 500 nM |  |  |  |  |  | > 80% | > 50% | > 80% | > 50% | > 5% | > 80% |  |  |  |  |  | 
2 | O=c1c(NCCc2ccc(Oc3ccc(Cl)cc3)cc2)c(Nc2cccnc2)c1=O [SQ-6, 3-{2-[4-(4-Chlorophenoxy)-phenyl]-ethylamino}-4-(pyridin-3-yl-amino)-cyclobut-3-ene-1,2-dione] | < 100 nM |  |  | < 20 nM | < 500 nM |  |  |  |  |  |  |  |  |  |  |  |  |  |  | 
3 | O=c1c(NCc2cccc(Oc3ccc(Cl)cc3)c2)c(Nc2cccnc2)c1=O [SQ-33, 3-[3-(4-Chlorophenoxy)-benzylamino]-4-(pyridin-3-yl-amino)-cyclobut-3-ene-1,2-dione] |  |  |  |  |  |  |  |  | 0% | 0% | > 50% | > 5% | 0% | > 20% |  |  |  |  |  | 
4 | COc1ccc(OCCCCCCNc2c(Nc3ccncc3)c(=O)c2=O)cc1 [SQ-14] | < 100 nM | < 2000 nM |  |  |  |  |  |  | > 5% | > 50% | > 80% | > 20% | > 20% | > 80% |  |  |  |  |  | 
5 | O=c1c(NCCCCCOc2ccc(Cl)cc2)c(Nc2cccnc2)c1=O [SQ-2] | < 20 nM | < 10000 nM | < 20 nM | < 20 nM |  |  |  |  | > 80% | > 50% | > 80% | > 50% | > 50% | > 80% |  |  |  |  |  | 
6 | O=c1c(NCCCCCCCOc2ccccc2)c(Nc2ccncc2)c1=O [SQ-11B, 3-(7-Phenoxyheptylamino)-4-(pyridin-4yl-amino)-3-cyclobutene-1,2-dione] | < 20 nM | < 500 nM | < 20 nM |  |  |  |  |  | > 80% | > 50% | > 80% | > 50% | > 50% | > 80% |  |  |  |  |  | 
7 | Cc1ccc(OCCCCCCNc2c(Nc3ccncc3)c(=O)c2=O)cc1 [SQ-13] | < 100 nM | < 2000 nM |  |  |  |  |  |  | > 5% | > 50% | > 80% | > 20% | > 20% | > 80% |  |  |  |  |  | 
8 | O=c1c(NCCCCCOc2ccc(Cl)cc2)c(Nc2ccncc2)c1=O [SQ-8] | < 100 nM | < 2000 nM | < 100 nM |  |  |  |  |  | > 80% | > 50% | > 80% | > 20% | > 5% | > 80% |  |  |  |  |  | 
9 | N#Cc1ccc(OCCCCCCNc2c(Nc3ccncc3)c(=O)c2=O)cc1 [SQ-19, 4-{6-[3,4-Dioxo-2-(pyridin-4-ylamino)-cyclobut-1-enylamino]-hexyloxy}-benzonitrile] |  |  |  |  |  |  |  |  |  | > 5% | > 5% | > 5% | > 0% | > 50% |  |  |  |  |  | 
10 | 3-[4-Phenoxybenzylamino]-4-(pyridin-4-yl-amino)-cyclobut-3-ene-1,2-dione [SQ-34] |  |  |  |  |  |  |  |  |  |  |  |  |  |  | >0% | >20% | 0% | 0% | >20% | 
11 | 3-[2-(4-Phenoxyphenyl)-ethylamino]-4-(pyridin-3-yl-amino)-cyclobut-3-ene-1,2-dione [SQ-5] |  |  |  |  |  | < 10000 nM | < 100 nM | < 2000 nM |  |  |  |  |  |  | >50% | >80% | 0% |  | >80% | >50%
12 | O=c1c(NCCCCCCCOc2ccc(Cl)cc2)c(Nc2ccncc2)c1=O [SQ-11A] | < 100 nM | < 2000 nM | < 100 nM |  |  |  |  |  | > 80% | > 20% | > 80% | > 50% | > 5% | > 80% |  |  |  |  |  | 
13 | O=c1c(NCCCCCCOc2ccc(Cl)cc2)c(Nc2cccnc2)c1=O [SQ-1B] | < 20 nM | < 2000 nM | < 10 nM | < 100 nM |  |  |  |  | > 80% | > 50% | > 80% | > 20% | > 20% | > 80% |  |  |  |  |  | 
14 | O=c1c(NCCCCOc2ccc(Cl)cc2)c(Nc2ccncc2)c1=O [SQ-10] | < 2000 nM | < 10000 nM | < 2000 nM |  |  |  |  |  | > 50% |  | > 50% | > 20% | 0% | > 50% |  |  |  |  |  | 
15 | O=c1c(NCCCCCCOc2ccc(Cl)cc2)c(Nc2ccncc2)c1=O [SQ-7B] | < 100 nM |  | < 100 nM | < 100 nM |  |  |  |  |  | > 50% | > 80% | > 50% |  | > 80% |  |  |  |  |  | 
16 | 3-[6-(3,4-Dichlorophenoxy)-hexylamino)]-4-(pyridin-4yl-amino)-3-cyclobutene-1,2-dione [SQ-15] |  |  |  |  |  |  | < 100 nM | < 500 nM |  |  |  |  |  |  | >50% | >80% | >20% | >20% | >80% | >20%

Continued, in another order:

Row | IC50 (HCT-116 [6]; Homo sapiens, HCT-116) | IC50 (SW-620 [7]; Homo sapiens) | IC50 (MCF7 [8]; Homo sapiens) | IC50 (A2780 [9]) | IC50 (PC-3 [10]) | IC50 (MCF7 [8]) | IC50 (HCT-116 [6]) | IC50 (SW-620 [7]) | Compound | inhibition at 1 µM (MCF7 [1]) | inhibition at 1 µM (PC-3 [2]) | inhibition at 1 µM (HCT-116 [3]) | inhibition at 1 µM (SW-620 [4]) | inhibition at 1 µM (A-549) | inhibition at 1 µM (A2780 [5]) | % Inhibition (1 µM) (PC-3 [2]) | % Inhibition (1 µM) (HCT-116 [3]) | % Inhibition (1 µM) (SW-620 [4]) | % Inhibition (1 µM) (A-549) | % Inhibition (1 µM) (A2780 [5]) | % Inhibition (1 µM) (MCF7 [1])
17 | < 100 nM | < 2000 nM |  |  |  |  |  |  | O=c1c(NCCCCCCNc2ccc(Cl)cc2)c(Nc2cccnc2)c1=O [SQ-26, 3-[6-(4-Chlorophenylamino)-hexylamino]-4-(pyridin-3-yl-amino)-cyclobut-3-ene-1,2-dione] | > 5% | > 50% | > 80% | > 20% | > 50% | > 80% |  |  |  |  |  | 
18 | < 2000 nM |  |  | < 2000 nM | < 10000 nM |  |  |  | O=c1c(NCCC2CCN(Cc3ccccc3)CC2)c(Nc2cccnc2)c1=O [SQ-37, 3-[2-(1-Benzylpiperidin-4-yl)ethylamino]-4-(pyridin-3-yl-amino)-cyclobut-3-ene-1,2-dione] |  |  |  |  |  |  |  |  |  |  |  | 
19 | < 100 nM | > 10000 nM | > 10000 nM | < 100 nM |  |  |  |  | O=c1c(NCc2ccc(COc3ccc(Cl)cc3)cc2)c(Nc2cccnc2)c1=O [SQ-32, 3-[4-(4-Chlorophenoxymethyl)-benzylamino]-4-(pyridin-3-yl-amino)-cyclobut-3-ene-1,2-dione] | > 20% | > 50% | > 80% | > 5% | > 20% | > 80% |  |  |  |  |  | 
20 | < 2000 nM | > 10000 nM | < 500 nM |  |  |  |  |  | O=c1c(NCc2ccc(Oc3ccc(Cl)cc3)cc2)c(Nc2cccnc2)c1=O [SQ-30, 3-[4-(4-Chlorophenoxy)-benzylamino]-4-(pyridin-3-yl-amino)-cyclobut-3-ene-1,2-dione] | > 80% | > 20% | > 80% | > 20% | > 50% | > 80% |  |  |  |  |  | 
21 | < 500 nM | < 2000 nM |  |  |  |  |  |  | O=c1c(NCCCCCCNc2ccc(Cl)cc2)c(Nc2ccncc2)c1=O [SQ-25, 3-[6-(4-Chlorophenylamino)-hexylamino]-4-(pyridin-4-yl-amino)-cyclobut-3-ene-1,2-dione] | > 5% | > 50% | > 80% | > 20% | > 20% | > 80% |  |  |  |  |  | 
22 | < 20 nM | < 500 nM | < 10000 nM | < 100 nM |  |  |  |  | O=c1c(NCCc2ccc(Oc3ccccc3)cc2)c(Nc2ccncc2)c1=O [SQ-17, 3-[2-(4-Phenoxyphenyl)-ethylamino]-4-(pyridin-4-yl-amino)-cyclobut-3-ene-1,2-dione] |  | > 50% | > 80% | > 20% | > 50% | > 80% |  |  |  |  |  | 
23 |  | < 2000 nM | < 10000 nM |  |  |  |  |  | O=c1c(NCCCCCCOc2ccc(C(F)(F)F)cc2)c(Nc2ccncc2)c1=O [SQ-18, 3-[6-(4-Trifluoromethylphenoxy)-hexylamino]-4-(pyridin-4-yl-amino)-cyclobut-3-ene-1,2-dione] |  | > 50% | > 80% | > 20% | > 20% | > 80% |  |  |  |  |  | 
